Read-outs that look alike come from different tables or passages of the source. Numbered stars: 1 amine (or outer) side, 2 acyl side, 3 side chain; on linkers, the order of the positions; unused ones are H or OH. Peptide text beside a SMILES is read from it. * marks the point of attachment. X10 = C[C@@H](CN*)NC(=O)[C@@H](N)Cc1c[nH]cn1; X2 = C[C@@H](O)[C@H](N)C(=O)N[C@@H](CO)CN*; X3 = O=C(O)[C@@H]1CCCN1C(=O)NC[C@H](CO)N*; X5 = C[C@@H](O)[C@H](N)CN*; CO = O=C([*:1])[*:2]

For orientation: EC50 means the concentration that produces a half-maximal response.

Data set [1] has as its target T1, Carboxypeptidase A (EC 3.4.17.1) (Bos taurus, UniProt P00730).
T1 construct: from bovine pancreas (Fluka), milky suspension; purchased Fluka; host or cells: bovine pancreas
T1 sequence (P00730 111-419): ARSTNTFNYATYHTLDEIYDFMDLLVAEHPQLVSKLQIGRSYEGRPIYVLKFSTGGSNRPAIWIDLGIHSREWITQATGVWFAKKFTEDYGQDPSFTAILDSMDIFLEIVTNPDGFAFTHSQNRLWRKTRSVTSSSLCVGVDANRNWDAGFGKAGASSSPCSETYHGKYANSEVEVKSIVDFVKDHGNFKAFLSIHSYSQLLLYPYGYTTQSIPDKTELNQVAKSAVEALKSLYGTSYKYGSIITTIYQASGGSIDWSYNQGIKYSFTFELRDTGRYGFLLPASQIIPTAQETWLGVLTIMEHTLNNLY
The data set can be described thus: Enzymatic degradation by carboxypeptidase A. To be noted: same results = more stable than the native peptides. In kind it is in vitro ADME, bovine. As to the method: Enzymatic Degradation—Carboxypeptidase A. Carboxypeptidase A (EC 3.4.17.1) from bovine pancreas (Fluka), milky suspension, stock solution in PBS buffer (pH 7.5, 0.01 M). For each degradation experiment, stock solutions of the peptidic substrate and the enzyme were made using phosphate-buffered saline (PBS) buffer solution. The enzyme concentrations of the stock solutions were selected such that the standard substrates were totally degraded after a maximum of 15 min (ratio 2[enzyme]:100[substrate]). PBS buffer solution (10 mM sodium phosphate, 0.14 M NaCl) was prepared as follows: Solution A (4.75 mL of 0.2 M NaH2PO4.H2O), solution B (20.25 mL of 0.2 M Na2HPO4.H2O), NaCl (4.5 g) and H2O (25 mL) were stirred for 15 min at room temperature and diluted tenfold with H2O. The pH was adjusted either with NaOH (1 M) or with HCl (1 M) prior to use. A solution of the substrate in PBS buffer (pH 7.5, 0.01 M) and a solution of the required amount of enzyme, were mixed and incubated at 25° C. for 4 hours. Degradation was stopped with concentrated AcOH, and buffer solution was added so that the total volume reached 150 μL.
The resulting mixture was analyzed by reversed-phase HPLC. A mixture of CH3CN/H2O (0.1% TFA) was used as eluent. Gradients were 10% CH3CN to 100% CH3CN in 10 minutes. The flow rate, for all separations, was 1 mL·min^−1.

Another data set concerns the target T2, mouse GLP-1 receptor (Mus musculus, UniProt O35659).
T2 construct: mouse GLP-1 receptor endogenously expressed in βTC6 cells; endogenous in cells; host or cells: βTC6 cells
T2 sequence (O35659 22-463): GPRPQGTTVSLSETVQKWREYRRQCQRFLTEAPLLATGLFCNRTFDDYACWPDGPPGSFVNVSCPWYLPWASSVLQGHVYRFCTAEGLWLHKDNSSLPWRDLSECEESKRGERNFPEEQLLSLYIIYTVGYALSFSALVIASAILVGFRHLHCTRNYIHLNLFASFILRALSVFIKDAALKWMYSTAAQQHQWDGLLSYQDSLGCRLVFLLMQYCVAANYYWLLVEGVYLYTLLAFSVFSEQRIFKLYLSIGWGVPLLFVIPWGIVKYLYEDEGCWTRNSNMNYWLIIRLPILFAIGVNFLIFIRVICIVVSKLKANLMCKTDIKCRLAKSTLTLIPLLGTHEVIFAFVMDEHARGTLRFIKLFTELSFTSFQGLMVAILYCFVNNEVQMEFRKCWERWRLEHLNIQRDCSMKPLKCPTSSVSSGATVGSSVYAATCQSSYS
The data set can be described thus: GLP-1 functional assay: agonist activity by cAMP production (HTRF) in βTC6 cells. Type of data set: cell-based. As for the experimental part:
For stimulated control measurement, separate assay wells contain 10 nM GLP-1(7-37) were utilized.
Following incubation, the cells were lysed and the fluorescence acceptor (D2-labeled cAMP) and fluorescence donor (anti-cAMP antibody labeled with europium cryptate) were added. […] The results are expressed as a percent of the control response to 10 nM GLP-1(7-37). The standard reference agonist is GLP-1(7-37), which was tested in each experiment at several concentrations to generate a concentration-response curve from which its EC50 value was calculated.
(§1) HTRF (Homogeneous Time-Resolved Fluorescence) principle. The HTRF technology is based on time resolved fluorescence energy transfer (TR-FRET), which occurs between long-lived fluorophore Europium or Terbium Cryptates, and EuK or Tb respectively, as a donor and the allophycocyanin XL665, d2 or Red as acceptor. Many compounds and proteins present in biological fluids or serum are naturally fluorescent, and the use of conventional, prompt fluorescence leads to serious limitations in assay sensitivity. The use of long-lived fluorophore combined with time-resolved detection (a delay between excitation and emission detection) minimizes prompt fluorescence interference.
For orientation: cAMP levels reflect the balance of adenylyl cyclase and phosphodiesterase activity.

A further data set relates to chymotrypsin. The data set can be described thus: Enzymatic degradation by chymotrypsin. The following applies: compared to native peptide GLP-1 (SEQ ID NO: 1). In kind it is in vitro ADME. As for the experimental part: Enzymatic Degradation—Chymotrypsin and Trypsin. Stock solutions of the compounds were prepared at a concentration of 400 μM in a solution of 50 mM HEPES buffer, 50 mM NaCl, 0.05% Tween-80, pH 8.0. Stock solution of the chymotrypsin or trypsin was prepared at a concentration of 250 μg/mL in water. Stability of compounds to chymotrypsin was assessed by conducting a protease reaction in a 96-well plates at room temperature. Each well received 10 μL of HEPES buffer, 38 μL of the solution of compound to be assayed (final concentration 304 μmol/L), and 2 μL of the enzyme solution (final concentration 10 μg/mL) for a total volume of 50 μL. Each compound was also incubated in the absence of the enzyme (12 μL of HEPES buffer and 38 μL of the compound).
(§2) At the indicated time (5, 10, 15, 30 and 60 minute(s)) a 10 μL aliquot was removed from each experimental reaction and pipet into 100 μL of 1% TFA solution to quench the reaction (t=0 minutes was determined using the reaction without enzyme). A portion of the quenched reaction solution was analyzed by HPLC. The time course of peptide degradation was determined by integrating the area of each peak in a series of HPLC traces. Another portion of the quenched reaction was analyzed by LC-MS for identification of each peptide fragment.

The subject of the next data set is trypsin. The data set can be described thus: Enzymatic degradation by trypsin. Type of data set: in vitro ADME. To be noted: compared to native peptide GLP-1 (seq. 1). As for the experimental part:
Enzymatic Degradation—Chymotrypsin and Trypsin. Stock solutions of the compounds were prepared at a concentration of 400 μM in a solution of 50 mM HEPES buffer, 50 mM NaCl, 0.05% Tween-80, pH 8.0. […] Stability of compounds to chymotrypsin was assessed by conducting a protease reaction in a 96-well plates at room temperature. […] Each compound was also incubated in the absence of the enzyme (12 μL of HEPES buffer and 38 μL of the compound).
as §2

The target in a further data set is T3, MDMX (Homo sapiens, UniProt O15151).
T3 construct: GI:88702790)
T3 sequence (O15151 1-174): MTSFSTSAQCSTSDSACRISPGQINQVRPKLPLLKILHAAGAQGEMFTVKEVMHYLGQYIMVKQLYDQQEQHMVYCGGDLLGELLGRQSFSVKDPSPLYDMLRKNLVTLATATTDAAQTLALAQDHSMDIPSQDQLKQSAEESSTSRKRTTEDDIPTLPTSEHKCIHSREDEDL
The data set can be described thus: MDMX/p53 interaction HTRF assay. In kind it is biochemical. As to the method: (§3) Functional Assay to Examine Bioactivity of MDM2 and MDMX Antagonists. The compounds were received dissolved in 100% DMSO at a final concentration of 10 mM and frozen. After complete defrosting and sonication, all compounds were diluted in 100% DMSO at both 0.4 mM, 0.04 and 0.004 mM, and distributed into two 96-well compounds daughter plates (Table 2).
(§4) Each compound was evaluated in duplicate on both (MDM2 or MDMX)/p53 interaction and on a positive TR-FRET control protein in a 384-well reaction plate. […] The reference compound Nutlin-3 is integrated in the compound daughter plate and was used under the same conditions.
as §1, with “interference. […]” for “interference.”

Another data set deals with T4, MDM2 (Homo sapiens, UniProt Q00987).
T4 construct: GST-Flag-Mdm2 (AA1-188; GI:4505136)
T4 sequence (Q00987 1-188): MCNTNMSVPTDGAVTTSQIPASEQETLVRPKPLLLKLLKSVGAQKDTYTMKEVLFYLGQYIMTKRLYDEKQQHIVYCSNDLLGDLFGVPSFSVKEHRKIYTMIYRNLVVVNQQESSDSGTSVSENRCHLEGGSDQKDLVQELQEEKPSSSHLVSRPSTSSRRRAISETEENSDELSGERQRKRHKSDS
The data set can be described thus: MDM2/p53 interaction HTRF assay. Type of data set: biochemical. As to the method:
as §3, §4
as §1, with “interference. […]” for “interference.”

The conditions of data set [2]: in vivo; cited from earlier work.

As to `CC[C@H](C)[C@H](NC(=O)[C@H](Cc1ccccc1)NC(=O)[C@H](CCC(=O)O)NC(=O)[C@H](CCCCN)NC(=O)[C@H](C)NC(=O)[C@H](C)NC(=O)[C@H](CCC(N)=O)NC(=O)CNC(=O)[C@H](CCC(=O)O)NC(=O)[C@H](CC(C)C)NC(=O)[C@H](Cc1ccc(O)cc1)NC(=O)[C@H](CO)NC(=O)[C@H](CO)NC(=O)[C@@H](NC(=O)[C@H](CC(=O)O)NC(=O)[C@H](CO)NC(=O)[C@@H](NC(=O)[C@H](Cc1ccccc1)NC(=O)[C@@H](NC(=O)CNC(=O)[C@H](CCC(=O)O)NC(=O)[C@H](C)NC(=O)[C@@H](N)Cc1c[nH]cn1)[C@@H](C)O)[C@@H](C)O)C(C)C)C(=O)N[C@@H](C)C(=O)N[C@H](CNC(=O)N[C@@H](CC(C)C)C(=O)N[C@H](C(=O)N[C@@H](CCCCN)C(=O)NCC(=O)N[C@@H](CCCNC(=N)N)C(=O)NCC(=O)O)C(C)C)Cc1c[nH]c2ccccc12` [Compound 4], the “stability with carboxipeptidase A compared to native peptides” value in data set [1] is recorded as “same results”. Also, the EC50 on mouse GLP-1 receptor was 0.26 nM. The “half-life in the chymotrypsin degradation test compared to native peptide” value in the data set with chymotrypsin was “longer half-life”. Take `CC[C@H](C)[C@H](NC(=O)[C@H](Cc1ccccc1)NC(=O)NC[C@H](CCC(=O)O)NC(=O)[C@H](CCCCN)NC(=O)[C@H](C)NC(=O)[C@H](C)NC(=O)[C@H](CCC(N)=O)NC(=O)CNC(=O)[C@H](CCC(=O)O)NC(=O)[C@H](CC(C)C)NC(=O)[C@H](Cc1ccc(O)cc1)NC(=O)[C@H](CO)NC(=O)[C@H](CO)NC(=O)[C@@H](NC(=O)[C@H](CC(=O)O)NC(=O)[C@H](CO)NC(=O)[C@@H](NC(=O)[C@H](Cc1ccccc1)NC(=O)[C@@H](NC(=O)CNC(=O)[C@H](CCC(=O)O)NC(=O)[C@H](C)NC(=O)[C@@H](N)Cc1c[nH]cn1)[C@@H](C)O)[C@@H](C)O)C(C)C)C(=O)N[C@@H](C)C(=O)N[C@@H](Cc1c[nH]c2ccccc12)C(=O)N[C@@H](CC(C)C)C(=O)N[C@H](C(=O)N[C@@H](CCCCN)CNC(=O)NCC(=O)N[C@@H](CCCNC(=N)N)CNC(=O)NCC(=O)O)C(C)C` [Compound 11]: the “half-life in the trypsin degradation test compared to native peptide” value in the data set with trypsin is “longer half-life”. On to `CC(C)C[C@H](NC(=O)[C@H](C)NC(=O)[C@H](Cc1c[nH]c2ccccc12)NC(=O)[C@H](Cc1ccc(O)cc1)NC(=O)[C@H](CCC(=O)O)NC(=O)[C@H](C)NC(=O)[C@H](Cc1ccccc1)NC(=O)[C@H](CO)NC(=O)NC[C@@H](N)[C@@H](C)O)C(=O)N[C@@H](CC(C)C)C(=O)N[C@@H](CO)CNC(=O)N1CCC[C@H]1C(=O)O` [Compound 23] ({X5-CO}-SFAEYWALL-X3; N-terminus and C-terminus assumed), for which the EC50 on MDMX came to 6.3 nM; at MDM2 it was 0.75 nM. `CC(C)C[C@H](NC(=O)[C@H](C)NC(=O)[C@H](Cc1c[nH]c2ccccc12)NC(=O)[C@H](Cc1ccc(O)cc1)NC(=O)[C@H](CCC(=O)O)NC(=O)[C@H](C)NC(=O)[C@H](Cc1ccccc1)NC(=O)NC[C@H](CO)NC(=O)[C@@H](N)[C@@H](C)O)C(=O)N[C@@H](CC(C)C)C(=O)N[C@@H](CO)CNC(=O)N1CCC[C@H]1C(=O)O` [Compound 24] ({X2-CO}-FAEYWALL-X3): the “stability with carboxipeptidase A compared to native peptides” value in data set [1] is given as “same results”.

Take Albiglutide: the half-life result in data set [2] was “four to seven”. “{X10-CO}-EGTFTSDLSKQLEEEAVRLFIEWLKNGGPSSGAPPSKKKKKK-NH2 [Compound 67]”: at mouse GLP-1 receptor (read-out: EC50 (nM), GLP-1 Functional Assay), the EC50 was found to be 0.082 nM.
